The text below walks through data of patent EP0081425B1, “Pharmaceutical compositions having normolipemic properties and containing compounds of the n-substituted benzenesulfonamide type” (priority 1981, dated 1983).

Like-named read-outs stand apart in the source and are kept apart here.

The test system of the assay is hyperlipidémie provoquée par l'administration de TRITON®. In words: Triton test: hyperlipidemia induced by i.v. TRITON W.R. in fasted rats. In kind it is in vivo, rats WISTAR mâles. The note with it: for Cholestérol estérifié Score (par rapport au clofibrate compté pour 1) / Cholestérol total Score (par rapport au clofibrate compté pour 1) / Lipides totaux Score (par rapport au clofibrate compté pour 1) / Triglycérides Score (par rapport au clofibrate compté pour 1): ratio to clofibrate of the same series; for inhibition in vivo at 250 mg/kg: Rattus norvegicus, po, blood assayed 6 h and/or 24 h later. An excerpt: Dans une première série d'expériences, des produits ont été testés sur une hyperlipidémie provoquée par l'administration de TRITON® selon le protocole suivant.
Les essais ont été réalisés sur des groupes de cinq rats WISTAR mâles dont le poids varie de 150 à 175 g.
Pour effectuer ces essais, on provoque une hyperlipidémie chez les animaux, au moyen du produit commercialisé par la Société ROHM and HAAS sous le nom de TRITON® W. R.
On observe, sur cette hyperlipidémie, les effets obtenus par administration des substances actives selon l'invention.
Les essais sont réalisés comme suit : • les rats sont mis à jeûner pendant 18 heures, puis on administre le TRITON® W.R. par voie intraveineuse en solution aqueuse à 10 % à raison de 200 mg/kg ;
6 heures et/ou 24 heures plus tard, on effectue les dosages sur le sang de façon traditionnelle.
Dans la première colonne, on a indiqué le numéro du composé testé.
Dans la deuxième colonne, on a indiqué le nombre d'animaux qui ont été soumis au test.
Dans les quatre dernières colonnes, on a indiqué les résultats relatifs respectivement : • aux lipides totaux, • aux triglycérides, • au cholestérol total, • au cholestérol estérifié.
Dans chacune de ces colonnes, on indique : • a) le pourcentage de diminution par rapport au témoin TRITON; • b) le score par rapport au clofibrate de référence, c'est-à-dire le rapport de l'intensité de l'activité du produit testé vis-à-vis de celle,de l'activité au clofibrate comptée pour 1.

Setting [1] is: 250 mg/kg oral, given with TRITON W.R. 200 mg/kg i.v., read-out: Cholestérol estérifié % (pourcentage de diminution par rapport au témoin TRITON).
Setting [2] is: 250 mg/kg oral, given with TRITON W.R. 200 mg/kg i.v., read-out: Cholestérol total % (pourcentage de diminution par rapport au témoin TRITON).
Setting [3] is: 250 mg/kg oral, given with TRITON W.R. 200 mg/kg i.v., read-out: Triglycérides % (pourcentage de diminution par rapport au témoin TRITON).
The mark [4] stands for this setting: read-out: Lipides totaux % (pourcentage de diminution par rapport au témoin TRITON), 250 mg/kg oral, given with TRITON W.R. 200 mg/kg i.v.

`COc1cc(N)c(Cl)cc1S(=O)(=O)NCC(C)O` (stereo not shown) [Composé n° 323]: the “Cholestérol estérifié Score (par rapport au clofibrate compté pour 1)” value (“Cholestérol estérifié Score” for short) (250 mg/kg oral) was 1,44. Also, for the setting “250 mg/kg oral”, the “Cholestérol total Score (par rapport au clofibrate compté pour 1)” value (“Cholestérol total Score” for short) is reported as 4,26. For the same molecule, the “Lipides totaux Score (par rapport au clofibrate compté pour 1)” value (“Lipides totaux Score” for short) (250 mg/kg oral) is reported as 1,23. Besides, the inhibition in vivo at 250 mg/kg came to 62.9% under setting [1], 39.2% under setting [2], 53% under setting [3] and 55.2% under setting [4].
Take `CCC(CO)NS(=O)(=O)c1cc(Br)ccc1OC` (stereo not shown) [Composé n° 645]: under “250 mg/kg oral”, the “Cholestérol estérifié Score” value is recorded as 0,50, the “Cholestérol total Score” value is on record as 1,54, the “Lipides totaux Score” value was 3,62 and the “Triglycérides Score (par rapport au clofibrate compté pour 1)” value (“Triglycérides Score” below) is 1,21. The inhibition in vivo at 250 mg/kg under setting [1] was determined as 19.4%. Besides, under setting [2], the inhibition in vivo at 250 mg/kg is 32.6%. The inhibition in vivo at 250 mg/kg under setting [3] is 36.8%. Under setting [4], the inhibition in vivo at 250 mg/kg worked out at 42.3%.
Regarding `CCC(CO)NS(=O)(=O)c1ccc(N)cc1OC` (stereo not shown) [compound 313], the “Lipides totaux Score” value (250 mg/kg oral) is listed as 0,77. Also, the inhibition in vivo at 250 mg/kg runs as follows: under setting [1], 39.4%; under setting [2], 39.3%; under setting [3], 0%; under setting [4], 19.4%.
For `CCC(CO)NS(=O)(=O)c1ccc([N+](=O)[O-])cc1OC` (stereo not shown) [compound 312], in that order: 1,79, 54.1%, 55.1%, 0% and 45.4%.
Regarding `COc1cc(N)ccc1S(=O)(=O)N(C)CCO` [compound 326], for the setting “250 mg/kg oral”, the “Cholestérol estérifié Score” value is given as 0,67. Also, the “Cholestérol total Score” value (250 mg/kg oral) was 0,41. Also, the “Lipides totaux Score” value (250 mg/kg oral) was 0,71. For the same molecule, the inhibition in vivo at 250 mg/kg is 29% under setting [1], 3.8% under setting [2], 20.3% under setting [3] and 31.9% under setting [4].
As to `CCC(CO)NS(=O)(=O)c1cc(Cl)ccc1OC` (stereo not shown) [Composé n° 311], the “Lipides totaux Score” value (250 mg/kg oral) was 0,69. Further, the inhibition in vivo at 250 mg/kg is, setting by setting: under setting [1], 0%; under setting [2], 0%; under setting [3], 0%; under setting [4], 17.6%.
As to `COc1ccc(N)cc1S(=O)(=O)NCCO` [compound 280], the “Cholestérol estérifié Score” value (250 mg/kg oral) is given as 0,08. The “Cholestérol total Score” value (250 mg/kg oral) is 0,11. For the same molecule, the inhibition in vivo at 250 mg/kg runs as follows: under setting [1], 2.9%; under setting [2], 1.9%; under setting [3], 0%.
`COc1cc([N+](=O)[O-])ccc1S(=O)(=O)NCC(C)O` (stereo not shown) [compound 319]: under “250 mg/kg oral”, the “Cholestérol estérifié Score” value was 0,33, the “Cholestérol total Score” value is given as 0,17, the “Lipides totaux Score” value is on record as 1,55 and the “Triglycérides Score” value is 0,78. The inhibition in vivo at 250 mg/kg under setting [1] is 16.4%. Also, under setting [2], the inhibition in vivo at 250 mg/kg came out at 1.6%. For the same molecule, the inhibition in vivo at 250 mg/kg under setting [3] was 56.5%. In addition, the inhibition in vivo at 250 mg/kg under setting [4] was 21.4%.
Take `COc1ccc(Cl)cc1S(=O)(=O)NCC(C)O` (stereo not shown) [Composé n° 318]: for the setting “250 mg/kg oral”, the “Cholestérol estérifié Score” value was 0,65. Moreover, for the setting “250 mg/kg oral”, the “Cholestérol total Score” value is on record as 1,55. The “Lipides totaux Score” value (250 mg/kg oral) is listed as 0,77. Moreover, the inhibition in vivo at 250 mg/kg came to 32% under setting [1], 14.7% under setting [2], 0% under setting [3] and 10.7% under setting [4].
In the case of `COc1ccc([N+](=O)[O-])cc1S(=O)(=O)N(C)CCO` [compound 327], the “Lipides totaux Score” value (250 mg/kg oral) is given as 0,53. For the same molecule, the inhibition in vivo at 250 mg/kg under setting [1] stood at 0%, the inhibition in vivo at 250 mg/kg under setting [2] turned out to be 0%, the inhibition in vivo at 250 mg/kg under setting [3] amounted to 9% and the inhibition in vivo at 250 mg/kg under setting [4] was 23.6%.
In the case of `COc1ccc([N+](=O)[O-])cc1S(=O)(=O)NCC(C)O` (stereo not shown) [compound 321], where the note is “250 mg/kg oral”, the “Cholestérol estérifié Score” value was 0,95, the “Cholestérol total Score” value was 1,44, the “Lipides totaux Score” value is on record as 2,84 and the “Triglycérides Score” value is 1,05. The inhibition in vivo at 250 mg/kg under setting [1] came to 46.7%. Also, the inhibition in vivo at 250 mg/kg under setting [2] was 13.7%. The inhibition in vivo at 250 mg/kg under setting [3] worked out at 76%. Besides, under setting [4], the inhibition in vivo at 250 mg/kg was 39.2%.
In the case of `COc1cc(N)ccc1S(=O)(=O)NCC(C)O` (stereo not shown) [compound 320], for the setting “250 mg/kg oral”, the “Cholestérol estérifié Score” value is on record as 0,34. The “Cholestérol total Score” value (250 mg/kg oral) is on record as 1,61. In addition, the “Lipides totaux Score” value (250 mg/kg oral) is given as 1,48. Also, for the setting “250 mg/kg oral”, the “Triglycérides Score” value is on record as 0,91. For the same molecule, the inhibition in vivo at 250 mg/kg runs as follows: under setting [1], 16.7%; under setting [2], 15.3%; under setting [3], 66.1%; under setting [4], 20.5%.
For the molecule `COc1ccc([N+](=O)[O-])cc1S(=O)(=O)NCCO` [compound 279], the “Triglycérides Score” value (250 mg/kg oral) is 0,20. In addition, the inhibition in vivo at 250 mg/kg under setting [1] turned out to be 0%, the inhibition in vivo at 250 mg/kg under setting [2] was 0% and the inhibition in vivo at 250 mg/kg under setting [3] was 10.2%.
Consider `COc1cc(N)c(Cl)cc1S(=O)(=O)NCCO` [compound 282], for which, for the setting “250 mg/kg oral”, the “Cholestérol estérifié Score” value is listed as 0,46, the “Cholestérol total Score” value is 0,75, the “Lipides totaux Score” value was 0,26 and the “Triglycérides Score” value is 0,42. Moreover, the inhibition in vivo at 250 mg/kg under setting [1] was 15.5%. The inhibition in vivo at 250 mg/kg under setting [2] was 13.3%. Also, the inhibition in vivo at 250 mg/kg under setting [3] was determined as 21.6%. For the same molecule, under setting [4], the inhibition in vivo at 250 mg/kg stood at 12%.
Turning to `COc1cc([N+](=O)[O-])ccc1S(=O)(=O)N(C)CCO` [compound 325], the “Cholestérol estérifié Score” value (250 mg/kg oral) is recorded as 0,04. Besides, where the note is “250 mg/kg oral”, the “Lipides totaux Score” value is listed as 0,06. The inhibition in vivo at 250 mg/kg was found to be 1.6% under setting [1], 0% under setting [2], 0% under setting [3] and 2.7% under setting [4].
`CCC(CO)NS(=O)(=O)c1cc(N)ccc1OC` (stereo not shown) [Composé n° 315]: the “Cholestérol total Score” value (250 mg/kg oral) is 1,83. The “Lipides totaux Score” value (250 mg/kg oral) is 3,61. Further, for the setting “250 mg/kg oral”, the “Triglycérides Score” value is 0,53. Moreover, the inhibition in vivo at 250 mg/kg reads like this: under setting [1], 0.8%; under setting [2], 17.4%; under setting [3], 38.1%; under setting [4], 49.8%.
For `COc1ccc(Cl)cc1S(=O)(=O)NCCO` [Composé n° 276], the “Cholestérol total Score” value (250 mg/kg oral) is on record as 0,25. Also, the “Triglycérides Score” value (250 mg/kg oral) is 0,48. For the same molecule, the inhibition in vivo at 250 mg/kg is 0% under setting [1], 4.4% under setting [2] and 24.8% under setting [3].
Consider `COc1cc([N+](=O)[O-])ccc1S(=O)(=O)NCCO` [compound 277], for which the “Cholestérol estérifié Score” value (250 mg/kg oral) is on record as 0,08. Further, the “Cholestérol total Score” value (250 mg/kg oral) is 0,18. Besides, where the note is “250 mg/kg oral”, the “Triglycérides Score” value is reported as 0,38. In addition, the inhibition in vivo at 250 mg/kg came out at 2.9% under setting [1], 3.2% under setting [2], 19.7% under setting [3] and 0% under setting [4].
For the molecule `COc1ccc(N)cc1S(=O)(=O)N(C)CCO` [compound 328], for the setting “250 mg/kg oral”, the “Lipides totaux Score” value is reported as 0,46. Besides, the inhibition in vivo at 250 mg/kg is 0% under setting [1], 0% under setting [2], 0% under setting [3] and 20.7% under setting [4].
As for `COc1cc(N)c(Cl)cc1S(=O)(=O)N(C)CCO` [compound 330], the “Cholestérol estérifié Score” value (250 mg/kg oral) is given as 0,96. In addition, the inhibition in vivo at 250 mg/kg runs as follows: under setting [1], 41.9%; under setting [2], 0%; under setting [3], 0%.
